Measured values as given in the supplement of paper PMC13380429.

Columns and labels:
[1] = system: A549-ACE2 infected with SARS-CoV-2; test: cell count relative to DMSO; higher = less toxic; details: 24 h
Caco-2 [2] = test: relative viability EC50 (midpoint between 100% and the lowest measured viability); higher = less toxic; details: 72 h
Vero E6 [3] = test: as above; details: 72 h
HepG2 [4] = test: as above; details: 72 h
Calu-3 [5] = test: as above; details: 72 h
U2OS [6] = test: as above; details: 72 h
[7] = system: A549-ACE2 infected with SARS-CoV-2; test: morphology score (similarity to uninfected cells); higher = more like uninfected cells; details: 24 h
A549-ACE2 [8] = test: drug-induced phospholipidosis relative to tamoxifen; higher = more phospholipidosis
Caco-2 [9] = test: cell viability relative to DMSO; higher = less toxic; details: 72 h
Vero E6 [10] = test: as above; details: 72 h
HepG2 [11] = test: as above; details: 72 h
Calu-3 [12] = test: as above; details: 72 h
U2OS [13] = test: as above; details: 72 h
A549-ACE2 [14] = test: phospholipidosis EC50; higher = less potent phospholipidosis inducer
Caco-2 [15] = test: drug sensitivity score (DSS) for viability; higher = more toxic; extreme values may be limits of the assay; details: 72 h
Vero E6 [16] = test: as above; details: 72 h
HepG2 [17] = test: as above; details: 72 h
Calu-3 [18] = test: as above; details: 72 h
U2OS [19] = test: as above; details: 72 h
[20] = system: A549-ACE2 infected with SARS-CoV-2; test: SARS-CoV-2 infection rate relative to DMSO; higher = more infection; details: 24 h

O=C(NC1CCN(CCCCC2(C(=O)NCC(F)(F)F)c3ccccc3-c3ccccc32)CC1)c1ccccc1-c1ccc(C(F)(F)F)cc1 [lomitapide]
Details	SARS-CoV-2 infection rate [%]	cell count [%]	cell viability [%]	morphology score	phospholipidosis EC50 [nM]
A549-ACE2 [14], 24 h	–	–	–	–	898
A549-ACE2 [14], 48 h	–	–	–	–	1800
A549-ACE2 [14], 72 h	–	–	–	–	2500
Caco-2 [9], 1 nM	–	–	101	–	–
Caco-2 [9], 10 nM	–	–	103	–	–
Caco-2 [9], 100 nM	–	–	103	–	–
Caco-2 [9], 1000 nM	–	–	103	–	–
Caco-2 [9], 10000 nM	–	–	11.8	–	–
Calu-3 [12], 1 nM	–	–	101	–	–
Calu-3 [12], 10 nM	–	–	100	–	–
Calu-3 [12], 100 nM	–	–	98.4	–	–
Calu-3 [12], 1000 nM	–	–	109	–	–
Calu-3 [12], 10000 nM	–	–	1.2	–	–
HepG2 [11], 1 nM	–	–	108	–	–
HepG2 [11], 10 nM	–	–	106	–	–
HepG2 [11], 100 nM	–	–	106	–	–
HepG2 [11], 1000 nM	–	–	100	–	–
HepG2 [11], 10000 nM	–	–	-0.5	–	–
U2OS [13], 1 nM	–	–	101	–	–
U2OS [13], 10 nM	–	–	110	–	–
U2OS [13], 100 nM	–	–	104	–	–
U2OS [13], 1000 nM	–	–	106	–	–
U2OS [13], 10000 nM	–	–	1.2	–	–
Vero E6 [10], 1 nM	–	–	102	–	–
Vero E6 [10], 10 nM	–	–	104	–	–
Vero E6 [10], 100 nM	–	–	96	–	–
Vero E6 [10], 1000 nM	–	–	97.8	–	–
Vero E6 [10], 10000 nM	–	–	-0.6	–	–
[1], 0.1 µM	–	96	–	–	–
[1], 0.3 µM	–	104	–	–	–
[1], 1 µM	–	108	–	–	–
[1], 3 µM	–	119	–	–	–
[7], 0.1 µM	–	–	–	-0.14	–
[7], 0.3 µM	–	–	–	0.12	–
[7], 1 µM	–	–	–	0.6	–
[7], 3 µM	–	–	–	0.91	–
[20], 0.1 µM	98	–	–	–	–
[20], 0.3 µM	93	–	–	–	–
[20], 1 µM	72	–	–	–	–
[20], 3 µM	12	–	–	–	–

Details	drug sensitivity score	relative viability EC50
Caco-2 [2]	–	3.38 µM
Caco-2 [15]	4.6	–
Calu-3 [5]	–	3.61 µM
Calu-3 [18]	4.9	–
HepG2 [4]	–	3.14 µM
HepG2 [17]	5.6	–
U2OS [6]	–	3.46 µM
U2OS [19]	5.1	–
Vero E6 [3]	–	2970 nM
Vero E6 [16]	5.9	–

drug-induced phospholipidosis [%], A549-ACE2 [8]
Details	0.3 µM	0.833333 µM	3.33333 µM	6.66667 µM	10 µM	30 µM
24 h	11.9	29.7	81	81.2	40.9	49.8
48 h	15.5	36	91.1	108	–	–
72 h	12.7	28.5	83.5	131	–	–
